The test system of experiment [1] is CML mononuclear cells. The experiment is described as follows: Apoptosis of CML mononuclear cells. To be noted: CML patient specimens. Format: cell-based, human. An excerpt: (§1) Fresh bone marrow (BM) cells were obtained from 38 patients with CML and 5 non-leukemic donors, 25 AML, 17 ALL, and 8 normal specimens with informed consent according to the Declaration of Helsinki. Approval was obtained from Institutional Review Board at the School of Medicine in Shanghai Jiao Tong University. BM mononuclear cells were isolated by Ficoll density gradient centrifugation (Shanghai Second Reagent Factory, Shanghai, China). CD34^+ Cell were selected using EasySep® Human CD34 Positive Selection kit (Stem Cell Technologies, Vancouver, BC, Canada) according to the manufacturer's instructions. The purity of CD34 cells ranged between 92 and 98% in all samples detennined by flow cytometry. The CD34^+ cells were cultured in a serum-free medium (StemPro 34; Gibco BRL, Gaithersburg, Md.) supplemented with growth factors (PeproTech, London, United Kingdom) (20). The growth factors consisted of GM-CSF (200 pg/mL), G-CSF (1 ng/mL); SCF (200 pg/mL); LIF (50 pg/mL), MIP-1α (200 pg/mL) and IL-6 (1 ng/mL).
(§2) Primitive AML and CML subpopulations (CD34^+ cells) were identified using CD34-PE in combination with CD38-APC, and followed by double-labeling with 7AAD and Annexin V antibodies for apoptosis assessment. […] Subsequently, the samples were incubated at room temperature for 15 minutes and analyzed by flow cytometry. […]

The test system of experiment [2] is AML CD34+ cells. Briefly: Apoptosis/viability of AML CD34+ cells (annexin-V FITC/7AAD). Type of experiment: cell-based, human. The settings on record: for viability at 5 µM: 5 μM fenretinide.
Text: as §1
Primitive AML and CML subpopulations (CD34^+ cells) were identified using CD34-PE in combination with CD38-APC, and followed by double-labeling with 7AAD and Annexin V antibodies for apoptosis assessment. The CD34^+ cells were first stained with antibodies against the surface markers CD34-PE and CD38-APC (Beckman Coulter, Fullerton, Calif.) and incubated at room temperature for 15 minutes. Cells were then washed with cold PBS and resuspended in 200 μL annexin V 1×binding buffer (10 mM HEPES/NaOH, pH 7.4, 140 mM NaCl, 2.5 mM CaCl2), 5 μL AnnexinV-FITC (BD Phanningen, San Diego, Calif.) and 7-aminoactinomycin (7-AAD, 0.25 mg/mL) (Molecular Probes, Eugene, Oreg.). Subsequently, the samples were incubated at room temperature for 15 minutes and analyzed by flow cytometry.
Primary acute leukemia cells from specimens including AML and ALL are mostly quiescent, especially for the subpopulations of leukemic CD34^+ cells (Guan and Hogge, 2000). To verify if this quiescent leukemia cells are sensitive to fenretinide, we compared the effects of fenretinide on primary leukemia versus normal specimens during short-term suspension culture. CD34^+ cells were isolated from primary acute leukemia specimens, and subjected to DNA content analysis through propidium iodide staining and followed by flow cytometry. The majority of isolated CD34^+ cells from AML and ALL were in G0/G1 phase of the cell cycle, indicating the quiescent feature of leukemia CD34^+ cells (FIG. 4A). Then, apoptosis profiles of AML CD34^+ cells and normal CD34^+ cells were examined through annexin-V FITC and 7AAD double staining (FIG. 4B).

The test system of experiment [3] is ALL CD34+ cells. The experiment is described as follows: Viability of ALL CD34+ cells. Format: cell-based. To be noted: Homo sapiens.
Text: as §1, §2

Experiment [4] has as its system K562, HL60 and NB4 leukemia cell lines. Briefly: Apoptosis versus intracellular ROS level in leukemia cell lines. To be noted: series of concentrations. Type of experiment: cell-based. Here is the method: 2×10^5 cultured cells were used for evaluating apoptosis using an ApoAlert Annexin V-FITC Apoptosis Kit (BD Biosciences). Cells were washed once by PBS, resuspended in 200 μl Annexin-V binding buffer, and then stained with Annexin V-FITC 5 μl, PI 10 μl for 15 min at room temperature in the dark. Cells were subsequently analyzed by flow cytometry.
The intracellular generation of reactive oxygen species (ROS) was measured using of the oxidation-sensitive fluorescent dye 2,7-dichlorofluorescin diacetate (DCFH-DA) (Molecular Probes). After 3 h exposure of fenretinide, 2×10^5 cells were harvested and washed once with PBS, then loaded with 1 ml PBS containing 10 μM of DCFH-DA. The cells were then incubated at 37° C. for 30 min and the fluorescence intensity was measured at 530 nm.
Fenretinide induces ROS-dependent apoptosis is the common feature in a variety of tumors (Sun et al., 1999). Here, we extensively explored the relationship between intracellular ROS levels and apoptosis outcomes induced by fenretinide in a panel of leukemia cell lines, including K562, HL60 and NB4. The intracellular ROS levels in leukemic cells were evaluated by DCFH-DA staining, and apoptosis of leukemic cells induced by fenretinide treatment with a series of concentrations was examined through annexin-V FITC and 7AAD double staining.

Experiment [5] deals with MKN45. The experiment is described as follows: Apoptosis in gastric tumor cell line MKN45 (Rh123/PI, FACS). Type of experiment: cell-based. The settings on record: MKN45, 48 hours; 4 μM fenretinide, 5 μM Tet, alone or co-treatment. On the procedure: Loss of MTP was evaluated through rhodamine 123 (Rh123) and propidium iodide (PI) staining. 2×10^5 cells were washed by PBS and incubated with 1 μg/ml Rh123 at 37° C. for 30 min. After washed by PBS, 10 μl PI was added to cells for 15 min at room temperature in the dark. Fluorescence emission at 530 nm (representing R123 retention as a function of MTP) was measured with flow cytometry.
Fenretinide induces intracellular ROS and ER stress to activate series of molecular events including apoptotic pathway and such anti-apoptotic pathways as NF-κB cascade. NF-κB can mediate the progression of inflammation-related cancer. […] Unlike fenretinide, Tet is the well-known anti-cancer and anti-inflammation drugs via inhibiting the activity of NF-κB. For example, Tet, as the main effective component of Stephenia tetrandra S Moore, has bioactivities in reversing MDR (multidrug resistance), blocking calcium ion channel and so on. […] FIGS. 19A and 19B show synergistic induction of apoptosis by fenretinide and Tet, as evaluated by Rh123/PI double stain using FACS. […] Through annexin-V/PI double staining, synergistic apoptosis profiles of fenretinide/tetrandrine co-treated MKN45 and SGC7901 cells were also observed (see FIGS. 19C and 19D).

Where two headings read alike, the source gives them in different places.

For orientation: viability means a read-out of living cells in per cent, often relative to untreated cells. Turning to `CC1=C(/C=C/C(C)=C/C=C/C(C)=C/C(=O)Nc2ccc(O)cc2)C(C)(C)CCC1` [fenretinide, N-(4-hydroxyphenyl)retinamide], in experiment [1], the “apoptosis in mononuclear cells” value was “little apoptosis”. Besides, the viability at 5 µM was found to be 89.7% in experiment [2] (Homo sapiens, 18 h, read-out: viability of most resistant AML specimen (AML #8)); 0.5% in experiment [2] (Homo sapiens, 18 h, read-out: viability of most sensitive AML specimen (AML #20)); 45.4% in experiment [2] (Homo sapiens, 18 h in culture, read-out: mean viability of AML CD34+ cells); 58% in experiment [3] (5 μM fenretinide). Besides, the viability at 7.5 µM in experiment [2] (Homo sapiens, 7.5 μM fenretinide, read-out: mean viability of AML CD34+ specimens) was 12.2%; in experiment [3] (7.5 μM fenretinide), 20.9%. Moreover, in experiment [2] (short-term suspension culture), the “apoptosis induction in AML CD34+ cells” value is “time- and dose-dependant manner”. In addition, in experiment [4], the “susceptibility to fenretinide-induced apoptosis versus level of intracellular ROS” value is on record as “positively correlated”. Besides, the apoptosis in experiment [5] was 6.2%.

These data come from patent publication US8088822B2, “Use of fenretinide or bioactive derivatives thereof and pharmaceutical compositions comprising the same” (priority 2008, dated 2012).
